The values below come from patent publication US7687644B2, “Adamantyl pyrrolidin-2-one derivatives as 11-beta hydroxysteroid dehydrogenase inhibitors” (Janssen Pharmaceutica NV, priority 2004, dated 2010).

pIC50: −log10 of the molar value.

Data set [1] deals with T1, 11β-HSD1 (Mus musculus, UniProt P50172).
T1 construct: endogenous in cells; host or cells: 3T3-L1 (ATCC-CL-173), differentiated into adipocytes
In words: Cellular assay, 11β-HSD1 activity in differentiated 3T3-L1 cells. Format: cell-based. The note with it: 4 hour pre-incubation, read-out: [C2] HSD1 cellular 3T3-L1 Score. The protocol:
The effects on 11β-HSD1 activity was measured in differentiated 3T3-L1 cells and rat hepatocytes.
Medium was refreshed twice a week.
One hour later, the medium was extracted on Extrelut^3-columns with 15 ml diethyl ether and the extract was analysed by HPLC as described above.
As for the enzymatic assays, the compounds to be tested were taken from a stock is solution and tested at a final concentration ranging from −10^−5M to 3·10^−9M.

Data set [2] concerns the target T2, 11β-HSD2 (Homo sapiens, UniProt P80365).
T2 sequence (P80365 1-405): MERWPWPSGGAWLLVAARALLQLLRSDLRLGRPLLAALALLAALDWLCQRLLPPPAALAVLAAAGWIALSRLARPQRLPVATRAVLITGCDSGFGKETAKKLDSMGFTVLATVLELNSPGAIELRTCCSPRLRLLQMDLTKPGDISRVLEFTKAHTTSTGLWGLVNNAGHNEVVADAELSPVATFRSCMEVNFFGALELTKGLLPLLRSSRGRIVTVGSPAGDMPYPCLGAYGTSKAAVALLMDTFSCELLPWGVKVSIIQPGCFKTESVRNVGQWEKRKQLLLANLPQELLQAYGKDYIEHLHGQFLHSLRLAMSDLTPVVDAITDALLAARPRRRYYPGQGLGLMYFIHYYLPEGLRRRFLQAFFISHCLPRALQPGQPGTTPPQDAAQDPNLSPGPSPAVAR
In words: Cellular assay, 11β-HSD2 activity in HepG2 cells. Format: cell-based. Details: endogenous in cells; host or cells: HepG2 (ATCC HB-8065). The note with it: 4 hour pre-incubation, read-out: [C2] HSD2 cellular HepG2 Score. The protocol: The effects on 11β-HSD2 activity was studied in HepG2 and LCC-PK1-cells HepG2-cells (ATCC HB-8065) were seeded in 12 well plates at a density of 100,000′ cells/ml and grown at 37° C. in a humidified 5% CO2 atmosphere in MEM-Rega-3 medium supplemented with 10% heat inactivated foetal calf serum, 2 mM L-glutamine and sodium bicarbonate). Medium was refreshed twice a week.
Following a 4 hour pre-incubation with test compound, 0.5 μCi ^3H-cortisol or corticosterone, was added to the cultures. One hour later, the medium was extracted on Extrelut^3-columns with 15 ml diethyl ether and the extract was analysed by HPLC as described above.
As for the enzymatic assays, the compounds to be tested were taken from a stock is solution and tested at a final concentration ranging from −10^−5M to 3·10^−9M. From the thus obtained dose response curves, the pIC50 value was calculated and scored as follows; Score 1=pIC50 value<5, Score 2=pIC50 value in the range of 5 to 6, Score 3=pIC50 value>6. Some of the thus obtained results are summarized in the table below (in this table NT stands for Not Tested).

Data set [3] has as its target 11β-HSD1 (Homo sapiens, UniProt P28845). In words: Enzymatic assay, 11β-HSD1 reductase activity (conversion of cortisone into cortisol). It is filed as biochemical. The note with it: recombinant protein, 2 μM cortisone, 45 minutes at 37° C.; read-out: [C1] HSD1-prot Reduct Score. The protocol: The effects of compounds on 11β-HSD1 dependent conversion of cortisone into cortisol (reductase activity) was studied in a reaction mixture containing 30 mM Tris-HCl buffer pH 7.2, 180 μM NADPH, 1 mM EDTA, 2 μM cortisone, 1 μl drug and/or solvent and 11 μg recombinant protein in a final volume of 100 μl.
(§1) All incubations were performed for 45 minutes at 37° C. in a water bath. The reaction was stopped by adding 100 μl acetonitrile containing 20 μg corticosterone as internal standard. After centrifugation, the product formation was analysed in the supernatant by HPLC on a Hypersyl BDS-C18 column using 0.05 mM ammonium acetate/methanol (50/50) as solvent. In all of the aforementioned assays, the drugs to be tested were taken from a stock solution and tested at a final concentration ranging from −10^−5M to 3·10^−9M. From the thus obtained dose response curves, the pIC50 value was calculated and scored as follows; Score 1=pIC50 value<5, Score 2=pIC50 value in the range of 5 to 6, Score 3=pIC50 value>6. Some of the thus obtained results are summarized in the table below (in this table NT stands for Not Tested).

Data set [4] addresses T2, 11β-HSD2. Nature of the data set: Enzymatic assay, 11β-HSD2 dependent dehydrogenase activity. It is filed as biochemical. The note with it: recombinant protein, 100 nM cortisol, 45 minutes at 37° C.; read-out: [C1] HSD2-prot Dehydro Score. The protocol:
The effects on the 11β-HSD2 dependent dehydrogenase activity was studied in a reaction mixture containing 0.1M sodium phosphate buffer pH 7.5, 300 μM NAD, 100 nM cortisol (of which 2 nM is 3H-radio labelled), 1 μl drug and/or solvent and 2.5 μg recombinant protein in a final volume of 100 μl.
as §1

11β-HSD1 (Homo sapiens, UniProt P28845), sequence (P28845 whole entry, species assumed): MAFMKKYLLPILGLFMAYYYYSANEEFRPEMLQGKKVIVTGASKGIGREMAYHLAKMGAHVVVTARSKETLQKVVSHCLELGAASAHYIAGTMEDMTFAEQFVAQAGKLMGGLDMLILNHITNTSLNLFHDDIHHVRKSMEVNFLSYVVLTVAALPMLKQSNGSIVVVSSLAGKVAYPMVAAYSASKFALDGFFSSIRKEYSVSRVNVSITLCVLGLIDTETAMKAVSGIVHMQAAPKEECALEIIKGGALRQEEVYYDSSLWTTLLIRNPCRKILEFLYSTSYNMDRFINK
T1 sequence (P50172 whole entry): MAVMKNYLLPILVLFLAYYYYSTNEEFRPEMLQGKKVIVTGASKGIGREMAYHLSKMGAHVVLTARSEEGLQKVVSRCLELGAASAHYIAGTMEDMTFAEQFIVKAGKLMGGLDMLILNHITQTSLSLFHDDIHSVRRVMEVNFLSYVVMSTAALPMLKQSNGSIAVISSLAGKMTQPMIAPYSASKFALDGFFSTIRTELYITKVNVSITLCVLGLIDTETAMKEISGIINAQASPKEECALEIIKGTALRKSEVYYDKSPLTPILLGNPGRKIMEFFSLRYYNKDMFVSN

For the molecule `O=C1C(Cc2ccccc2)CCN1[C@@H]1CC[C@]2(O)CC3CC2[C@H]1C3` (some centres unmarked) [Compound 37], the pIC50 on 11β-HSD1 [1] is greater than 6.00; at 11β-HSD2 [2] it was less than 5.00.

In the case of `O=C1C(Cc2ccc(OC(F)(F)F)cc2)CCN1C1C2CC3CC(C2)CC1C3` (centres unmarked) [Compound 15], at 11β-HSD1 [1], the pIC50 is less than 5.00.

For `CC1(c2ccccc2)CCN(C2C3CC4CC(C3)CC2C4)C1=O` (centres unmarked) [Compound 35], on 11β-HSD1 [1], the pIC50 is greater than 6.00.

As to `Cc1cccc(C)c1CC1(C)CCN(C2C3CC4CC(C3)CC2C4)C1=O` (centres unmarked) [Compound 18], the pIC50 at 11β-HSD1 [1] was less than 5.00.

Take `Cc1cc(C)cc(CC2(C)CCN(C3C4CC5CC(C4)CC3C5)C2=O)c1` (centres unmarked) [Compound 19]: the pIC50 on 11β-HSD1 [1] was greater than 6.00.

`O=C1C(Cc2cccc(C(F)(F)F)c2F)CCN1C1C2CC3CC(C2)CC1C3` (centres unmarked) [Compound 7]: at 11β-HSD1 [1], the pIC50 is greater than 6.00.

As usually defined, the melting point is the temperature of the solid-liquid transition. The molecule `Cc1cccc(CC2(C)CCN(C3C4CC5CC(C4)CC3C5)C2=O)c1F` (centres unmarked) [Compound 2] displayed a melting point of 120.5 to 122 °C. For the same molecule, on 11β-HSD1 [1], the pIC50 is greater than 6.00. Moreover, the pIC50 on 11β-HSD1 [3] was greater than 6.00. At 11β-HSD2 [2], the pIC50 was less than 5.00.

On to `Cc1cccc(CC2(C)CCN([C@@H]3CC[C@]4(O)CC5CC4[C@H]3C5)C2=O)c1F` (some centres unmarked) [Compound 40], for which the pIC50 at 11β-HSD1 [1] is greater than 6.00; on 11β-HSD2 [2], 5.00 to 6.00; on 11β-HSD2 [4], less than 5.00.

`O=C1C(Cc2ccccc2)CCN1C1C2CC3CC(C2)CC1C3` (centres unmarked) [Compound 33]: on 11β-HSD1 [1], the pIC50 is greater than 6.00.

For `CC1(Cc2ccccc2)CCN([C@@H]2CC[C@]3(O)CC4CC3[C@H]2C4)C1=O` (some centres unmarked) [Compound 38], the pIC50 on 11β-HSD1 [1] was greater than 6.00; at 11β-HSD2 [4], less than 5.00.

As to `COc1cccc(CC2(C)CCCN(C3C4CC5CC(C4)CC3C5)C2=O)c1` (centres unmarked) [Compound 27], the pIC50 at 11β-HSD1 [1] was less than 5.00.

Consider `O=C1N(C2C3CC4CC(C3)CC2C4)C2CCC1(Cc1ccccc1)CC2` (centres unmarked) [Compound 36], for which the pIC50 on 11β-HSD1 [1] is greater than 6.00.

With `O=C1C(Cc2cccc(OC(F)(F)F)c2)CCN1C1C2CC3CC(C2)CC1C3` (centres unmarked) [Compound 4], the pIC50 on 11β-HSD1 [1] was greater than 6.00.

As to `Cc1cccc(C)c1CC1CCN(C2C3CC4CC(C3)CC2C4)C1=O` (centres unmarked) [Compound 12], on 11β-HSD1 [1], the pIC50 was less than 5.00.

Take `CC1(Cc2ccc(OC(F)(F)F)cc2)CCN(C2C3CC4CC(C3)CC2C4)C1=O` (centres unmarked) [Compound 17]: at 11β-HSD1 [1], the pIC50 was greater than 6.00.

On to `O=C1C(Cc2cc(C(F)(F)F)cc(C(F)(F)F)c2)CCN1C1C2CC3CC(C2)CC1C3` (centres unmarked) [Compound 9], for which the pIC50 on 11β-HSD1 [1] was less than 5.00.

Turning to `COc1cccc(CC2(C)CCN(C3C4CC5CC(C4)CC3C5)C2=O)c1` (centres unmarked) [Compound 29], the pIC50 is greater than 6.00 on 11β-HSD1 [1], greater than 6.00 on 11β-HSD1 [3] and 5.00 to 6.00 on 11β-HSD2 [2].

As to `Cc1cc(C)cc(CC2CCCN(C3C4CC5CC(C4)CC3C5)C2=O)c1` (centres unmarked) [Compound 24], the pIC50 on 11β-HSD1 [1] was less than 5.00.

The molecule `Cc1cccc(CC2CCN(C3C4CC5CC(C4)CC3C5)C2=O)c1F` (centres unmarked) [Compound 1] gave a melting point of 101 to 102 °C. The pIC50 at 11β-HSD1 [1] is greater than 6.00. Further, on 11β-HSD1 [3], the pIC50 was greater than 6.00. For the same molecule, the pIC50 on 11β-HSD2 [2] is less than 5.00.

Consider `COc1cccc(CC2(Cc3cccc(OC)c3)CCCN(C3C4CC5CC(C4)CC3C5)C2=O)c1` (centres unmarked) [Compound 31], for which, on 11β-HSD1 [1], the pIC50 was less than 5.00.

Consider `Cc1cc(C)cc(CC2CCN(C3C4CC5CC(C4)CC3C5)C2=O)c1` (centres unmarked) [Compound 11], for which the pIC50 at 11β-HSD1 [1] is greater than 6.00.

Regarding `Cc1cccc(CC2CCN([C@@H]3CC[C@]4(O)CC5CC4[C@H]3C5)C2=O)c1F` (some centres unmarked) [Compound 39], the values for the pIC50 on 11β-HSD1 [1] and at 11β-HSD2 [4] were greater than 6.00 and less than 5.00, respectively.

Consider `CC1(Cc2ccccc2)CCN(C2C3CC4CC(C3)CC2C4)C1=O` (centres unmarked) [Compound 32], for which the pIC50 at 11β-HSD1 [1] is greater than 6.00.

Regarding `Cc1cccc(CC2CCCN(C3C4CC5CC(C4)CC3C5)C2=O)c1F` (centres unmarked) [Compound 26], the pIC50 on 11β-HSD1 [1] is greater than 6.00.

Consider `COc1cc(CC2(C)CCN(C3C4CC5CC(C4)CC3C5)C2=O)cc(OC)c1` (centres unmarked) [Compound 20], for which, on 11β-HSD1 [1], the pIC50 was greater than 6.00.

Take `O=C1C(Cc2ccc(OC(F)(F)F)cc2)CCCN1C1C2CC3CC(C2)CC1C3` (centres unmarked) [Compound 23]: the pIC50 at 11β-HSD1 [1] is less than 5.00.

In the case of `O=C1C(Cc2cccc(Br)c2)CCN1C1C2CC3CC(C2)CC1C3` (centres unmarked) [Compound 5], the pIC50 at 11β-HSD1 [1] is greater than 6.00.

Consider `COc1cccc(CC2CCN(C3C4CC5CC(C4)CC3C5)C2=O)c1` (centres unmarked) [Compound 3], for which the pIC50 on 11β-HSD1 [1] was greater than 6.00; at 11β-HSD1 [3], greater than 6.00; at 11β-HSD2 [2], less than 5.00.

Take `O=C1C(Cc2ccc(F)cc2)CCN1C1C2CC3CC(C2)CC1C3` (centres unmarked) [Compound 14]: the pIC50 at 11β-HSD1 [1] is greater than 6.00; at 11β-HSD1 [3], greater than 6.00; at 11β-HSD2 [2] it was less than 5.00.

Regarding `N#Cc1cccc(CC2CCN(C3C4CC5CC(C4)CC3C5)C2=O)c1` (centres unmarked) [Compound 6], the pIC50 at 11β-HSD1 [1] was greater than 6.00.

Consider `O=C1C(Cc2ccc(Cl)cc2)CCN1C1C2CC3CC(C2)CC1C3` (centres unmarked) [Compound 13], for which the values for the pIC50 at 11β-HSD1 [1], on 11β-HSD1 [3] and on 11β-HSD2 [2] were less than 5.00, greater than 6.00 and less than 5.00, respectively.

`O=C1C(Cc2cc(F)cc(C(F)(F)F)c2)CCN1C1C2CC3CC(C2)CC1C3` (centres unmarked) [Compound 10]: the pIC50 on 11β-HSD1 [1] was 5.00 to 6.00.

As to `O=C1N(C2C3CC4CC(C3)CC2C4)C2CCC1(c1ccccc1)CC2` (centres unmarked) [Compound 34], at 11β-HSD1 [1], the pIC50 was less than 5.00.

`COc1cc(CC2(C)CCCN(C3C4CC5CC(C4)CC3C5)C2=O)cc(OC)c1` (centres unmarked) [Compound 28]: on 11β-HSD1 [1], the pIC50 is less than 5.00.

As for `Cc1ccc(CC2CCN(C3C4CC5CC(C4)CC3C5)C2=O)cc1` (centres unmarked) [Compound 16], the figures for the pIC50 on 11β-HSD1 [1], on 11β-HSD1 [3] and on 11β-HSD2 [2] were greater than 6.00, greater than 6.00 and less than 5.00, respectively.

For the molecule `COc1cc(CC2CCN(C3C4CC5CC(C4)CC3C5)C2=O)cc(OC)c1` (centres unmarked) [Compound 8], the pIC50 at 11β-HSD1 [1] was greater than 6.00; at 11β-HSD1 [3], greater than 6.00; on 11β-HSD2 [2], less than 5.00.

As for `Cc1cccc(C)c1CC1CCCN(C2C3CC4CC(C3)CC2C4)C1=O` (centres unmarked) [Compound 22], the pIC50 on 11β-HSD1 [1] was less than 5.00.

Turning to `COc1cc(CC2CCCN(C3C4CC5CC(C4)CC3C5)C2=O)cc(OC)c1` (centres unmarked) [Compound 25], the pIC50 on 11β-HSD1 [1] is greater than 6.00.

In the case of `COc1cccc(CC2CCCN(C3C4CC5CC(C4)CC3C5)C2=O)c1` (centres unmarked) [Compound 21], on 11β-HSD1 [1], the pIC50 was greater than 6.00.

With `CC1(Cc2ccc(F)cc2)CCN(C2C3CC4CC(C3)CC2C4)C1=O` (centres unmarked) [Compound 30], the pIC50 on 11β-HSD1 [1] is greater than 6.00; on 11β-HSD1 [3] it was greater than 6.00; at 11β-HSD2 [2] it was less than 5.00.
